Where “and” joins values, the source holds several entries; their conditions need not be identical. Identical values can stand only once.
What was measured:
Type in all cases: in vivo, Macaca fascicularis
Conditions in all cases: non-human primate, n=4
bleeding time = experiment: Bleeding time in deep vein thrombosis model
Procedure: To measure bleeding time, a blood pressure cuff is placed on the upper arm and inflated to 40 mm Hg. Two uniform cuts are made in the volar surface of the forearm, the blood from the cuts is collected onto a gauze pad every 30 sec. The time from when the cuts are made until the bleeding stops is considered the bleeding time. All gauze used to collect blood is placed in Drabkin's solution and the amount of blood lost from the bleeding time site is calculated based on the amount of hemoglobin measured in the Drabkin's solution.

[1] = system: thrombus formation in vena cava; experiment: Deep vein thrombosis model, thrombus accumulation on threads in vena cava
Source text: This model measures the accumulation of thrombus on a set of four threads (4-0 surgical silk) that are introduced into the vena cava of a non-human primate. The device used to introduce the threads consists of a copper wire (12 cm) contained in a sheath of polyethylene tubing (9 cm). Four 4-0 surgical silk threads (3 cm) are tied to the end of the wire and retracted into the tubing. When the device is inserted into the iliac vein, the wire is advanced introducing the threads into the vena cava between the bifurcation and the left renal vein.
(§1) Non-human primates (Macaca fascicularis) are lightly anesthetized with ketamine to facilitate placement of an endotracheal tube and a femoral venous catheter. Animals are put into and maintained in a deep plane of anesthesia using pentobarbital via the femoral vein cannula. A jugular vein is cannulated for infusion of drug and a carotid artery is cannulated for blood sampling and for monitoring hemodynamic parameters.
The abdominal cavity is opened and an ultrasonic flow probe placed on the left iliac vein. The right iliac vein (RIV) is dissected free of surrounding tissue for a length of approximately 4 cm. The RIV is ligated approximately 4 cm distal to the bifurcation of the abdominal vena cava and a second ligature is placed, loosely, approximately 2 cm distal to the bifurcation. An incision is made in the RIV between the two ligatures, the device described above introduced into the iliac vein and the threads advanced into the vena cava. Every study consists of three thrombus measurements:
Control—Saline infusion. Threads are introduced and left in for 30 min, removed and thrombus weighed.
Treatment 1—Aspirin administered as a bolus or compound as an infusion. For aspirin treatment, aspirin is administered as a bolus and a 30 min equilibration period is allowed to assure the platelets are inhibited. For compound treatment, infusion is started and allowed to run for 30 min to reach steady-state blood levels of compound. Threads are introduced and left in for 30 min, removed and thrombus weighed;
Treatment 2—Compound administered as an infusion. Compound infusion is started and allowed to run for 30 min to reach steady-state blood levels of compound. Threads are introduced and left in for 30 min, removed and thrombus weighed.
During the 30 min equilibration/infusion periods of Treatment 1 and Treatment 2, a piece of tubing containing a copper wire, but no threads, is introduced into the vein to maintain the integrity of the vessel. After the threads have been in the vessel for 30 min, the entire device is removed from the vessel and the threads are cut from the device and weighed. The weight of the threads prior to insertion in the vessel is subtracted to get the net thrombus weight

prothrombin time = experiment: Prothrombin time in deep vein thrombosis model
Procedure: The prothrombin time (PT) assay is a clotting assay that is used to determine deficiencies of clotting factor activity in the extrinsic pathway. The assay measures time to clotting after the addition of thromboplastin (human tissue factor). Normal human pooled plasma is incubated with 100 uM compound or saline in a coagulation machine. Thromboplastin is added and time to clotting is measured. Compounds with greater than 3×normal PT of 11.0 seconds are further analyzed by concentration response to determine at what concentration the prothrombin time is prolonged by 2×normal.
as §1
The table below depicts the effects of Aspirin coadministered with a compound of the present invention (compounds 54 and 55 are salts of the compound tested) on thrombus formation, prothrombin time and bleeding time in a non-human primate model of deep vein thrombosis.

[2] = Aspirin bolus followed by compound infusion 50 μg/kg/min (coadministered)
[3] = Aspirin bolus followed by compound infusion 100 μg/kg/min (coadministered)
[4] = compound infusion 200 μg/kg/min, no aspirin
[5] = compound infusion 100 μg/kg/min, no aspirin

Row | Structure (SMILES) | Bleeding Time (bleeding time; Aspirin bolus alone) | Net Thrombus Wt ([1]; Aspirin bolus alone) | Thrombus Wt: % Δ from Control ([1]; Aspirin bolus alone) | Prothrombin Time (prothrombin time; Aspirin bolus alone) | Bleeding Time (bleeding time; [2]) [min] | Bleeding Time (bleeding time; [3]) [min] | Bleeding Time (bleeding time; [4]) [min] | Net Thrombus Wt [1, 2] [mg] | Thrombus Wt: % Δ from Control [1, 2] [%] | Net Thrombus Wt [1, 3] [mg] | Thrombus Wt: % Δ from Control [1, 3] [%] | Net Thrombus Wt [1, 5] [mg] | Thrombus Wt: % Δ from Control [1, 5] [%] | Net Thrombus Wt [1, 4] [mg] | Thrombus Wt: % Δ from Control [1, 4] [%] | Prothrombin Time (prothrombin time; [2]) [s] | Prothrombin Time (prothrombin time; [3]) [s] | Prothrombin Time (prothrombin time; [5]) [s] | Prothrombin Time (prothrombin time; [4]) [s]
1 | CC(=O)Oc1ccccc1C(=O)O [Aspirin, reference compound] | 4.6 min and 4.3 min | 30.9 mg and 26.7 mg | −12% and −4% | 11.8 s and 11.5 s |  |  |  |  |  |  |  |  |  |  |  |  |  |  | 
2 | CC(C)Nc1ncc(-c2cc(N)cc(O)c2)n(CC(=O)NCc2ccc(C(=N)N)cc2)c1=O [Compounds 54 and 55] |  |  |  |  | 4.1 | 4.7 | 3.9 | 19.5 | −34 | 3.6 | −89 | 15.3 | −56 | 5.1 | −85 | 17.3 | 22.4 | 22.7 | 46.0

Source: patent publication US20040106626A1, “6-Membered unsaturated heterocyclic compounds useful for selective inhibition of the coagulation cascade” (Pharmacia Corporation, priority 2001, published 2004)
